Test results published in PMC5041959, “A high-content EMT screen identifies multiple receptor tyrosine kinase inhibitors with activity on TGFβ receptor” (Oncotarget, 2016).
pIC50: −log10 of the molar value. Read-outs that look alike come from different tables or passages of the source.

What was measured:
NMuMG cells = assay: High-content microscopy EMT screen in TGFβ-treated NMuMG cells (FA, SF, FN, cell count); format: cell-based, murine
SRC = SRC (Homo sapiens, UniProt P12931); assay: Biochemical kinase profiling (33PanQinase radiometric assay); details: read-out: SRC IC50; ATP at apparent Km
Py2T cells = assay: High-content microscopy EMT assay in TGFβ-treated Py2T breast cancer cells; format: cell-based, murine; details: for Emax (maximal effect on cell count): compared to reference 10 μM SB-431542 = 100%
ROCK = ROCK cellular assay (MLC Thr18/Ser19 phosphorylation ELISA in A7r5 cells); format: cell-based, rat; details: 90 min compound
[1] = Mus musculus; NMuMG; cell count decreased by 50% compared to DMSO control; read-out: Tox IC50
[2] = NMuMG, TGFβ1 2 ng/ml plus compound, 4 days; parameter decreased by 50%
[3] = NMuMG; compared to reference 10 μM SB-431542 = 100%
[4] = NMuMG, TGFβ1 2 ng/ml plus compound, 4 days; parameter decreased by 50%; read-out: FA IC50 (focal adhesion formation)
[5] = NMuMG, TGFβ1 2 ng/ml plus compound, 4 days; parameter decreased by 50%; read-out: FN IC50 (fibronectin patch formation)
[6] = NMuMG, TGFβ1 2 ng/ml plus compound, 4 days; parameter decreased by 50%; read-out: SF IC50 (stress fibers)
[7] = NMuMG; cell count decreased by 50% compared to DMSO control; read-out: Tox IC50
[8] = NMuMG; mean of IC50 values obtained for FA, SF, FN; read-out: EMT (FA/SF/FN) combined IC50
[9] = Mus musculus, read-out: CCI IC50 (cell count increase)
[10] = Mus musculus, read-out: Emax (maximal effect on cell count)
[11] = Mus musculus, read-out: Tox IC50
[12] = Py2T, cell count decreased by 50% compared to DMSO control, read-out: Tox IC50
[13] = Py2T, compared to 10 μM SB-431542, read-out: CCI IC50 (cell count increase)
[14] = NMuMG; cell count increased by 50% compared to 100% with 10 μM SB-431542
[15] = Py2T, TGFβ plus compound, 4 days

SRC, sequence (P12931 whole entry): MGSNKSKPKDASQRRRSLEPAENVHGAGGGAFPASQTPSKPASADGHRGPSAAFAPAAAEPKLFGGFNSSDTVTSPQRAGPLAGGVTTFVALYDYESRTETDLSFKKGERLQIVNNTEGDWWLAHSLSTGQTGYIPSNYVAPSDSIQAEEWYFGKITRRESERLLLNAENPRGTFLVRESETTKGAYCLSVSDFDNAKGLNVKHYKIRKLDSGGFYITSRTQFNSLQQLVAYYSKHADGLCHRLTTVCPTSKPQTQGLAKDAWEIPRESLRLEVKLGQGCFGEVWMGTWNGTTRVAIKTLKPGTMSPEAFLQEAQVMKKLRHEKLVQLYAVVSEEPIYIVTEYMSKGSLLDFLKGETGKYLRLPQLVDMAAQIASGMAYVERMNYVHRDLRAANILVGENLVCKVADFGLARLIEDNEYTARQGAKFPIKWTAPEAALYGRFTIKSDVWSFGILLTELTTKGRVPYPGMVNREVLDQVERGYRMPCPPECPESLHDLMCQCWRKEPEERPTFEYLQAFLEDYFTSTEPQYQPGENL

Molecule	pIC50 (NMuMG cells; [1])	FA IC50 (focal adhesion formation) (NMuMG cells; [2])	FN IC50 (fibronectin patch formation) (NMuMG cells; [2])	SF IC50 (stress fibers) (NMuMG cells; [2])	Emax (maximal effect on cell count) (NMuMG cells; [3])	other results
Nc1ncn([C@H]2C[C@H](O)[C@@H](CO)O2)c(=O)n1 [5-Aza-2′-deoxycytidine]	6.41	n.m.	n.m.	n.m.	n.m.	
Nc1ncn([C@@H]2O[C@H](CO)[C@@H](O)[C@H]2O)c(=O)n1 [5-Azacytidine]	5.90	n.m.	n.m.	n.m.	n.m.	
O=c1[nH]c(=O)n([C@H]2C[C@H](O)[C@@H](CO)O2)cc1Br [5-Bromo-2′-deoxyuridine]	< 5.52					pIC50 (NMuMG cells; Mus musculus, 96 h; NMuMG, TGFβ1 2 ng/ml plus compound, 4 days; parameter decreased by 50%; read-out: FA IC50 (focal adhesion formation)): 6.14; pIC50 (NMuMG cells; Mus musculus, 96 h; NMuMG, TGFβ1 2 ng/ml plus compound, 4 days; parameter decreased by 50%; read-out: FN IC50 (fibronectin patch formation)): 6.49; pIC50 (NMuMG cells; Mus musculus, 96 h; NMuMG, TGFβ1 2 ng/ml plus compound, 4 days; parameter decreased by 50%; read-out: SF IC50 (stress fibers)): 6.20; pIC50 (NMuMG cells; Mus musculus; read-out: CCI IC50 (cell count increase)): 6.52; Emax (NMuMG cells; Mus musculus; read-out: Emax (maximal effect on cell count)): 19%
CCN1CCN(Cc2ccc(-c3cc4c(N[C@H](C)c5ccccc5)ncnc4[nH]3)cc2)CC1 [AEE788]	7.36	n.m.	n.m.	n.m.	n.m.	
CNC(=O)c1ccccc1Sc1ccc2c(/C=C/c3ccccn3)n[nH]c2c1 [Axitinib]					n.m.	
Cc1ccc2c(c1)C(=O)C1(O)CCN(c3ccccc3)C1=N2 (stereo not shown) [Blebbistatin]					29.4%	pIC50 (NMuMG cells; [4]): 5.37; pIC50 (NMuMG cells; [5]): 5.59; pIC50 (NMuMG cells; [6]): 5.48; pIC50 (NMuMG cells; [7]): < 5.29; pIC50 (NMuMG cells; [8]): 5.47; pIC50 (SRC): 5.36
COc1cc2c(Oc3ccc4[nH]c(C)cc4c3F)ncnc2cc1OCCCN1CCCC1 [Cediranib (azd2171), Cediranib]	6.01	n.m.	n.m.	n.m.	n.m.	
C[C@@H](Oc1cc(-c2cnn(C3CCNCC3)c2)cnc1N)c1c(Cl)ccc(F)c1Cl [Crizotinib]	5.77	n.m.	n.m.	n.m.	n.m.	
Cc1nc(Nc2ncc(C(=O)Nc3c(C)cccc3Cl)s2)cc(N2CCN(CCO)CC2)n1 [Dasatinib]	7.29	n.m.	n.m.	n.m.	n.m.	
c1ccc2c(c1)[I+]c1ccccc1-2 [Diphenyleneiodonium chloride (DPI), Diphenyleneiodonium chloride]	6.34	n.m.	n.m.	n.m.	n.m.	
C#Cc1cccc(Nc2ncnc3cc(OCCOC)c(OCCOC)cc23)c1 [Erlotinib]	7.16	n.m.	n.m.	n.m.		Emax (maximal effect on cell count) (NMuMG cells): n.m.
COc1cc([C@@H]2c3cc4c(cc3[C@@H](O[C@@H]3O[C@@H]5CO[C@@H](C)O[C@H]5[C@H](O)[C@H]3O)[C@H]3COC(=O)[C@H]23)OCO4)cc(OC)c1O [Etoposide]	5.93	n.m.	n.m.	n.m.	n.m.	
O=S(=O)(c1cccc2cnccc12)N1CCCNCC1 [Fasudil]						pIC50 (NMuMG cells; [9]): 5.54; pIC50 (NMuMG cells; Mus musculus, read-out: EMT (FA/SF/FN) combined IC50): 5.52; Emax (NMuMG cells; [10]): 28.2%; pIC50 (NMuMG cells; [11]): < 4.60; pIC50 (Py2T cells; [9]): 5.77; Emax (Py2T cells; [10]): 53.6%; pIC50 (Py2T cells; [11]): < 4.60
CCn1c(-c2nonc2N)nc2cnc(Oc3cccc(NC(=O)c4ccc(OCCN5CCOCC5)cc4)c3)cc21 [GSK269962]						pIC50 (Py2T cells; Py2T, TGFβ plus compound, 4 days, read-out: FA IC50 (focal adhesions)): 8.70; pIC50 (Py2T cells; Py2T, TGFβ plus compound, 4 days, read-out: FN IC50 (fibronectin patches)): 8.30; pIC50 (Py2T cells; Py2T, TGFβ plus compound, 4 days, read-out: SF IC50 (stress fibers)): 8.70; pIC50 (Py2T cells; [12]): 6.25; pIC50 (Py2T cells; [13]): 9.30; Emax (maximal effect on cell count) (Py2T cells; Py2T): 53%; pIC50 (ROCK): > 8.52
COc1cc2ncnc(Nc3ccc(F)c(Cl)c3)c2cc1OCCCN1CCOCC1 [Gefitinib]						Emax (maximal effect on cell count) (NMuMG cells): n.m.
O=C(Cc1ccc(-c2ccc(OCCN3CCOCC3)cc2)cn1)NCc1ccccc1 [KX2-391]		n.m.	n.m.	n.m.	n.m.	pIC50 (NMuMG cells; [7]): 7.82; CCI IC50 (cell count increase) (NMuMG cells; [14]): n.m.
CS(=O)(=O)CCNCc1ccc(-c2ccc3ncnc(Nc4ccc(OCc5cccc(F)c5)c(Cl)c4)c3c2)o1 [Lapatinib]	6.87	n.m.	n.m.	n.m.	n.m.	
CO[C@@H]1C[C@@H](C[C@H]2CC[C@H](C)[C@H]([C@@H](C)C(=O)O)O2)O[C@]2(O[C@](C)([C@H]3CC[C@@](C)([C@@H]4O[C@@H]([C@H]5O[C@@](O)(CO)[C@H](C)C[C@@H]5C)C[C@@H]4C)O3)C[C@H]2C)[C@@H]1C [Nigericin]	> 7.40	n.m.	n.m.	n.m.	n.m.	
CC(C)(C)n1nc(-c2ccc(Cl)cc2)c2c(N)ncnc21 [PP2]		n.m.	n.m.	n.m.	n.m.	pIC50 (NMuMG cells; [7]): 5.33; CCI IC50 (cell count increase) (NMuMG cells; [14]): n.m.
O=C(Nc1ccc(-c2cn[nH]c2)cc1)C1COc2ccccc2O1 (stereo not shown) [Rho kinase inhibitor V]					13.4%	pIC50 (NMuMG cells; [4]): 6.37; pIC50 (NMuMG cells; [5]): 6.43; pIC50 (NMuMG cells; [6]): 6.24; pIC50 (NMuMG cells; [7]): 5.21; pIC50 (NMuMG cells; NMuMG; cell count increased by 50% compared to 100% with 10 μM SB-431542; read-out: CCI IC50 (cell count increase)): 6.97; pIC50 (NMuMG cells; [8]): 6.34; FA IC50 (focal adhesions) (Py2T cells; [15]): n.m.; FN IC50 (fibronectin patches) (Py2T cells; [15]): n.m.; SF IC50 (stress fibers) (Py2T cells; [15]): n.m.; pIC50 (Py2T cells; [12]): 5.60; pIC50 (Py2T cells; [13]): 7.00; Emax (maximal effect on cell count) (Py2T cells; Py2T): 33.3%; pIC50 (ROCK): 6.82
CC[C@@H](C(=O)[C@@H](C)[C@@H](O)[C@H](C)[C@@H]1O[C@@H]([C@@H](CC)C(=O)O)CC[C@@H]1C)[C@H]1O[C@]2(C=C[C@@H](O)[C@]3(CC[C@@](C)([C@H]4CC[C@](O)(CC)[C@H](C)O4)O3)O2)[C@H](C)C[C@@H]1C [Salinomycin]	6.62	n.m.	n.m.	n.m.		Emax (maximal effect on cell count) (NMuMG cells): n.m.
CCN(CC)CCNC(=O)c1c(C)[nH]c(/C=C2\C(=O)Nc3ccc(F)cc32)c1C [Sunitinib malate]	5.29	n.m.	n.m.	n.m.	n.m.	
N#CC(=C(/N)Sc1ccccc1N)/C(C#N)=C(/N)Sc1ccccc1N [U0126]		n.m.	n.m.	n.m.	n.m.	pIC50 (NMuMG cells; [7]): 5.80; CCI IC50 (cell count increase) (NMuMG cells; [14]): n.m.
COc1cc2c(Nc3ccc(Br)cc3F)ncnc2cc1OCC1CCN(C)CC1 [Vandetanib]	6.68	n.m.	n.m.	n.m.	n.m.	
Clc1ccc(Nc2nnc(Cc3ccncc3)c3ccccc23)cc1 [Vatalanib]	4.98	n.m.	n.m.	n.m.	n.m.	
AZD4547		n.m.	n.m.	n.m.		CCI IC50 (cell count increase) (NMuMG cells): n.m.; Emax (maximal effect on cell count) (NMuMG cells): n.m.; pIC50 (NMuMG cells; [7]): 5.52
Abamectin		n.m.	n.m.	n.m.	n.m.	pIC50 (NMuMG cells; [7]): 5.02; CCI IC50 (cell count increase) (NMuMG cells; [14]): n.m.
